In brackets after ≈: the same amount, converted by molar mass.
Tests used:
Test in all cases: Agar dilution MIC in DST agar (Ericsson and Sherris)
Type in all cases: cell-based
[1] = system: Escherichia coli 205; conditions: for MIC Esch. 205: in vitro; for MIC: Escherichia coli, 205, in vitro, read-out: MIC Esch. 205
From the text: (§1) Die antibiotische Aktivität der Testverbindungen in vitro wurde durch die Agarverdünnungsmethode nach Ericsson, H.M., und Sherris, S.C., 1971, Acta Path. Microb. Scand. Section B, Suppl. No. 217, Bd. 1-90, in DST Agara ermittelt. Die gefundenen, das Wachstum der Testorganismen noch hemmenden Minimalkonzentrationen (MIC = minimum inhibiting concentrations) werden in Mikrogramm pro Milliliter (µg/ml) für die geprüften Verbindungen in der Tabelle 1 angegeben.

[2] = system: Proteus morganii 1518; conditions: for MIC Prot. 1518: in vitro; for MIC: Morganella morganii, 1518, in vitro, read-out: MIC Prot. 1518
From the text: as §1

[3] = system: Salmonella Typhimurium 277; conditions: in vitro; for MIC: Salmonella enterica, TYPHIMURIUM, read-out: MIC Salm. 277
From the text: as §1

[4] = system: Escherichia coli 2018; conditions: for MIC Esch. 2018: in vitro; for MIC: Escherichia coli, 2018, in vitro, read-out: MIC Esch. 2018
From the text: as §1

[5] = system: Proteus morganii 2359; conditions: for MIC Prot. 2359: in vitro; for MIC: Morganella morganii, 2359, in vitro, read-out: MIC Prot. 2359
From the text: as §1

[6] = system: Pseudomonas aeruginosa K 799/61; conditions: for MIC Pseu. 799: in vitro, agar dilution, DST agar; for MIC: Pseudomonas aeruginosa, K799/61, read-out: MIC Pseu. 799
From the text: as §1

[7] = system: Staphylococcus aureus 10B; conditions: in vitro; for MIC: Staphylococcus aureus, 10B, read-out: MIC Staph. 10B
From the text: as §1

[8] = system: Staphylococcus aureus 2999; conditions: in vitro
From the text: as §1

| Molecule | MIC Esch. 205 [1] [µg/mL] | MIC Prot. 1518 [2] [µg/mL] | MIC Salm. 277 [3] [µg/mL] | MIC Esch. 2018 [4] [µg/mL] | MIC Prot. 2359 [5] [µg/mL] | MIC Pseu. 799 [6] [µg/mL] | MIC Staph. 10B [7] [µg/mL] | MIC Staph. 2999 [8] [µg/mL] | MIC [1] [µg/mL] | MIC [2] [µg/mL] | MIC [3] [µg/mL] | MIC [4] [µg/mL] | MIC [5] [µg/mL] | MIC [6] [µg/mL] | MIC [7] [µg/mL] |
| --- | --- | --- | --- | --- | --- | --- | --- | --- | --- | --- | --- | --- | --- | --- | --- |
| 4-(2,6-Dimethyl-morpholino)-imidazolo[4,5-c]rifamycin SV [Verbindung 29] | 32 | 8 | 128 | 32 | 8 | 8 | – | – | – | – | – | – | – | – | – |
| 4-(3-Diethylaminocarbonyl-1-piperidyl)-imidazolo[4,5-c]-rifamycin SV [Verbindung 26] | 16 | 16 | 84 | 32 | 16 | 16 | 0.05 | 0.01 | – | – | – | – | – | – | – |
| 4-(4-Butylpiperazinyl)-imidazolo[4,5-c]rifamycin SV [Verbindung 33] | 8 | 4 | 32 | 2 | 4 | 32 | 0.001 | 0.001 | – | – | – | – | – | – | – |
| 4-(4-Ethoxycarbonylpiperazinyl)-imidazolo[4,5-c]rifamycin SV [Verbindung 67] | 16 | 16 | 64 | 16 | 16 | 32 | 0.005 | 0.005 | – | – | – | – | – | – | – |
| 4-(4-Heptylpiperazinyl)-imidazolo[4,5-c]rifamycin SV [Verbindung 36] | 2 | 8 | 32 | 8 | 8 | 8 | – | – | – | – | – | – | – | – | – |
| 4-(4-Hexylpiperazinyl)-imidazolo[4,5-c]rifamycin SV [Verbindung 35] | 8 | 8 | 32 | 8 | 8 | 8 | – | – | – | – | – | – | – | – | – |
| 4-(4-Isobutyl-2-methyl-piperazinyl)-imidazolo[4,5-c]rifamycin SV [Verbindung 75] | 8 | 2 | 32 | 8 | 8 | 32 | 0.01 | – | – | – | – | – | – | – | – |
| 4-(4-Isopropyloxycarbonylpiperazinyl)-imidazolo[4,5-c]-rifamycin SV [Verbindung 68] | 32 | 8 | 32 | 32 | 32 | 8 | 0.01 | – | – | – | – | – | – | – | – |
| 4-(4-Pentylpiperazinyl)-imidazolo[4,5-c]rifamycin SV [Verbindung 34] | 8 | 8 | 32 | 2 | 8 | 32 | – | – | – | – | – | – | – | – | – |
| 4-(N-Butyl-N-methylamino)-imidazolo[4,5-c]rifamycin SV [Verbindung 9] | 8 | 1 | 32 | 8 | 8 | 8 | – | – | – | – | – | – | – | – | – |
| 4-Thiomorpholino-imidazolo[4,5-c]rifamycin SV [Verbindung 30] | 8 | 8 | 32 | 8 | 8 | 32 | – | – | – | – | – | – | – | – | – |
| 4-[4-(1-Ethylpropyl)-piperazinyl]-imidazolo[4,5-c]rifamycin SV [Verbindung 41] | 8 | 8 | – | 2 | 8 | 32 | 0.005 | – | – | – | – | – | – | – | – |
| 4-[4-(2-Methyl-3-phenyl-propyl)-piperazinyl]-imidazolo- [4,5-c]rifamycin SV [Verbindung 58] | 16 | 16 | 32 | – | 16 | 16 | 0.005 | 0.005 | – | – | – | – | – | – | – |
| CCN(CC)c1nc2c3c(O)c4c(O)c(C)c5c(c4c2[nH]1)C(=O)C(C)(OC=CC(OC)C(C)C(OC(C)=O)C(C)C(O)C(C)C(O)C(C)C=CC=C(C)C(=O)N3)O5 (stereo not drawn) [Verbindung 6, 4-Diethylamino-imidazolo[4,5-c]rifamycin SV] | – | – | – | – | – | – | – | – | 128 (≈ 161 µM) | 128 (≈ 161 µM) | 128 (≈ 161 µM) | 128 (≈ 161 µM) | 128 (≈ 161 µM) | 128 (≈ 161 µM) | – |
| CO[C@H]1/C=C/O[C@@]2(C)Oc3c(C)c(O)c4c(O)c(c5[nH]c(N6CCc7ccccc76)nc5c4c3C2=O)NC(=O)/C(C)=C\C=C\[C@H](C)[C@H](O)[C@@H](C)[C@@H](O)[C@@H](C)[C@H](OC(C)=O)[C@@H]1C [Verbindung 20, 4-Indolinyl-imidazolo[4,5-c]rifamycin SV] | – | – | – | – | – | – | – | – | 8 (≈ 9.54 µM) | 4 (≈ 4.77 µM) | 32 (≈ 38.1 µM) | 8 (≈ 9.54 µM) | 8 (≈ 9.54 µM) | 16 (≈ 19.1 µM) | – |
| CCCC(C)CN1CCN(c2nc3c([nH]2)c2c(O)c4c(O)c(C)c5c(c43)C(=O)[C@@](C)(O/C=C/[C@H](OC)[C@@H](C)[C@@H](OC(C)=O)[C@H](C)[C@H](O)[C@H](C)[C@@H](O)[C@@H](C)/C=C/C=C(/C)C(=O)N2)O5)CC1 (stereo partly drawn) [Verbindung 39, 4-[4-(2-Methylpentyl)-piperazinyl]-imidazolo[4,5-c]-rifamycin SV] | – | – | – | – | – | – | – | – | 8 (≈ 8.99 µM) | 8 (≈ 8.99 µM) | 32 (≈ 36 µM) | 8 (≈ 8.99 µM) | 8 (≈ 8.99 µM) | 32 (≈ 36 µM) | – |
| CCC(C)CCN1CCN(c2nc3c([nH]2)c2c(O)c4c(O)c(C)c5c(c43)C(=O)[C@@](C)(O/C=C/[C@H](OC)[C@@H](C)[C@@H](OC(C)=O)[C@H](C)[C@H](O)[C@H](C)[C@@H](O)[C@@H](C)/C=C/C=C(/C)C(=O)N2)O5)CC1 (stereo partly drawn) [Verbindung 42, 4-[4-(3-Methylpentyl)-piperazinyl]-imidazolo[4,5-c]-rifamycin SV] | – | – | – | – | – | – | – | – | 8 (≈ 8.99 µM) | 8 (≈ 8.99 µM) | 32 (≈ 36 µM) | 8 (≈ 8.99 µM) | 8 (≈ 8.99 µM) | 32 (≈ 36 µM) | 0.005 (≈ 0.00562 µM) |
| C=CCN1CCN(c2nc3c([nH]2)c2c(O)c4c(O)c(C)c5c(c43)C(=O)[C@@](C)(O/C=C/[C@H](OC)[C@@H](C)[C@@H](OC(C)=O)[C@H](C)[C@H](O)[C@H](C)[C@@H](O)[C@@H](C)/C=C/C=C(/C)C(=O)N2)O5)CC1 [Verbindung 44, 4-(4-Allylpiperazinyl)-imidazolo[4,5-c]rifamycin SV] | – | – | – | – | – | – | – | – | 8 (≈ 9.46 µM) | 8 (≈ 9.46 µM) | 32 (≈ 37.8 µM) | 8 (≈ 9.46 µM) | 8 (≈ 9.46 µM) | 32 (≈ 37.8 µM) | – |
| C=C(C)CN1CCN(c2nc3c([nH]2)c2c(O)c4c(O)c(C)c5c(c43)C(=O)[C@@](C)(O/C=C/[C@H](OC)[C@@H](C)[C@@H](OC(C)=O)[C@H](C)[C@H](O)[C@H](C)[C@@H](O)[C@@H](C)/C=C/C=C(/C)C(=O)N2)O5)CC1 [Verbindung 46, 4-[4-(2-Methyl-2-propenyl)-piperazinyl]-imidazolo[4,5-c]-rifamycin SV] | – | – | – | – | – | – | – | – | 32 (≈ 37.2 µM) | 8 (≈ 9.3 µM) | 32 (≈ 37.2 µM) | 8 (≈ 9.3 µM) | 8 (≈ 9.3 µM) | 32 (≈ 37.2 µM) | – |
| CO[C@H]1/C=C/O[C@@]2(C)Oc3c(C)c(O)c4c(O)c(c5nc(N6CCN(C7CCCCC7)CC6)[nH]c5c4c3C2=O)NC(=O)/C(C)=C\C=C\[C@H](C)[C@H](O)[C@@H](C)[C@@H](O)[C@@H](C)[C@H](OC(C)=O)[C@@H]1C [Verbindung 51, 4-(4-Cyclohexylpiperazinyl)-imidazolo[4,5-c]rifamycin SV] | – | – | – | – | – | – | – | – | 8 (≈ 9.01 µM) | 8 (≈ 9.01 µM) | 32 (≈ 36 µM) | 32 (≈ 36 µM) | 8 (≈ 9.01 µM) | 8 (≈ 9.01 µM) | 0.01 (≈ 0.0113 µM) |
| CO[C@H]1/C=C/O[C@@]2(C)Oc3c(C)c(O)c4c(O)c(c5nc(N6CCN(c7ccccc7)CC6)[nH]c5c4c3C2=O)NC(=O)/C(C)=C\C=C\[C@H](C)[C@H](O)[C@@H](C)[C@@H](O)[C@@H](C)[C@H](OC(C)=O)[C@@H]1C [Verbindung 52, 4-(4-Phenylpiperazinyl)-imidazolo[4,5-c]rifamycin SV] | – | – | – | – | – | – | – | – | 32 (≈ 36.3 µM) | 8 (≈ 9.07 µM) | 32 (≈ 36.3 µM) | 8 (≈ 9.07 µM) | 8 (≈ 9.07 µM) | 32 (≈ 36.3 µM) | – |
| CO[C@H]1/C=C/O[C@@]2(C)Oc3c(C)c(O)c4c(O)c(c5nc(N6CCN(CC7CCCCCC7)CC6)[nH]c5c4c3C2=O)NC(=O)/C(C)=C\C=C\[C@H](C)[C@H](O)[C@@H](C)[C@@H](O)[C@@H](C)[C@H](OC(C)=O)[C@@H]1C [Verbindung 56] | – | – | – | – | – | – | – | – | 8 (≈ 8.73 µM) | 8 (≈ 8.73 µM) | 32 (≈ 34.9 µM) | 8 (≈ 8.73 µM) | 8 (≈ 8.73 µM) | 32 (≈ 34.9 µM) | 0.005 (≈ 0.00546 µM) |
